From patent US12364669B2, “Device and method for transdermal delivery of cannabidiol” (Remy Biosciences, Inc., priority 2020, dated 2025)

Experiment: Diffusion of CBD from transdermal devices through a human cadaver epidermis, Franz Diffusion Cell method
Type: in vitro ADME
Settings: Example 2, FIG. 4; reservoir device, 5 percent CBD in ethanol/water 70/30; with hydrophilic porous membrane 24 versus membrane omitted
Description: The effects of using a hydrophobic, porous membrane versus a hydrophilic, porous membrane (such as membrane 24) in reservoir transdermal device 20 are studied in this example. […] The backing 22 is an occlusive backing film (PE/PET from 3M). Hydroxy ethyl cellulose is added to the solution to yield a thixotropic preparation 27. A volume of 300 microliters of the preparation is placed in the reservoir 26.
The skin adhesive 30 is a BIO PSA 7-4301 adhesive coated to a thickness of 15 g/m^2 on side 36 of membrane 24. An overlay adhesive patch is placed over the reservoir which forms an island in the middle. The overlay assures adhesion of the reservoir to the skin. The device 20 is contacted with a human cadaver epidermis, and diffusion through the epidermis is measured using the Franz Diffusion Cell method.
In a first run, membrane 24 is a Lydall® Evopor™ 5E02A, hydrophilic, microporous membrane (of 0.2 micrometers pore size). […]
The device 20 is contacted with a human cadaver epidermis, and diffusion through the epidermis is measured using the Franz Diffusion Cell method. […]
This example is conducted using three reservoir transdermal devices such as those of Example 1, with each having the hydrophilic, porous membrane described therein. […] Diffusion through a human cadaver epidermis is measured using the Franz Diffusion Method. […]

## C=C(C)[C@@H]1CCC(C)=C[C@H]1c1c(O)cc(CCCCC)cc1O [CBD, Cannabidiol]
  permeability of CBD through the skin (cumulative flux versus time): the same regardless of whether the membrane 24 is provided
